Several values for one entry are separate records, joined by “and”; a condition that tells them apart may be missing. Identical values can stand only once. ± gives the expanded uncertainty stated by the source.
Assay: xn = mol fraction of the nth substance listed
Conditions: Fluid (supercritical or subcritical phases), Frequency=5 MHz, Pulse-echo method

O=C=O [carbon dioxide] + CO
Conditions	speed of sound
313.15 K, 90000 kPa, x1 = 0.97	980.1 ± 1.3 m/s
313.15 K, 100110 kPa, x1 = 0.97	1019.5 ± 1.3 m/s
313.15 K, 109900 kPa, x1 = 0.97	1055.1 ± 1.4 m/s
313.15 K, 120040 kPa, x1 = 0.97	1089.6 ± 1.4 m/s
313.15 K, 140110 kPa, x1 = 0.97	1152.5 ± 1.5 m/s
313.15 K, 159960 kPa, x1 = 0.97	1208.8 ± 1.5 m/s
313.15 K, 179840 kPa, x1 = 0.97	1260.7 ± 1.6 m/s
323.14 K, 24960 kPa, x1 = 0.925	536.3 ± 0.9 m/s and 537.4 ± 0.8 m/s
323.14 K, 24980 kPa, x1 = 0.925	537.5 ± 0.8 m/s
323.14 K, 25000 kPa, x1 = 0.925	537.5 ± 0.8 m/s
323.14 K, 29980 kPa, x1 = 0.925	591.2 ± 0.9 m/s
323.14 K, 29990 kPa, x1 = 0.925	591.2 ± 0.9 m/s and 590.7 ± 0.9 m/s and 591.5 ± 0.9 m/s
323.14 K, 34960 kPa, x1 = 0.925	636.5 ± 0.9 m/s and 637.2 ± 0.9 m/s
323.14 K, 34980 kPa, x1 = 0.925	637.4 ± 0.9 m/s
323.14 K, 34990 kPa, x1 = 0.925	637.5 ± 0.9 m/s
323.14 K, 39980 kPa, x1 = 0.925	678 ± 0.9 m/s and 677.9 ± 0.9 m/s
323.14 K, 39990 kPa, x1 = 0.925	678.6 ± 0.9 m/s
323.14 K, 40000 kPa, x1 = 0.925	678.2 ± 0.9 m/s
323.14 K, 44980 kPa, x1 = 0.925	714.6 ± 1 m/s and 714.8 ± 1 m/s
323.14 K, 45000 kPa, x1 = 0.925	714.7 ± 1 m/s
323.14 K, 49960 kPa, x1 = 0.925	748 ± 1 m/s
323.14 K, 49980 kPa, x1 = 0.925	748.4 ± 1 m/s and 748.2 ± 1 m/s
323.14 K, 50000 kPa, x1 = 0.925	748.4 ± 1 m/s
323.14 K, 54960 kPa, x1 = 0.925	779.2 ± 1 m/s
323.14 K, 54980 kPa, x1 = 0.925	779.1 ± 1 m/s
323.14 K, 55000 kPa, x1 = 0.925	779.3 ± 1 m/s
323.14 K, 55010 kPa, x1 = 0.925	779.4 ± 1 m/s
323.14 K, 59980 kPa, x1 = 0.925	807.9 ± 1.1 m/s and 808.1 ± 1.1 m/s
323.14 K, 59990 kPa, x1 = 0.925	808.2 ± 1.1 m/s
323.14 K, 60030 kPa, x1 = 0.925	808.2 ± 1.1 m/s
323.14 K, 64970 kPa, x1 = 0.925	835.2 ± 1.1 m/s and 835.3 ± 1.1 m/s and 835.1 ± 1.1 m/s
323.14 K, 64990 kPa, x1 = 0.925	835.4 ± 1.1 m/s
323.14 K, 69970 kPa, x1 = 0.925	860.9 ± 1.1 m/s and 860.8 ± 1.1 m/s
323.14 K, 69980 kPa, x1 = 0.925	861 ± 1.1 m/s
323.14 K, 69990 kPa, x1 = 0.925	860.9 ± 1.1 m/s
323.14 K, 74950 kPa, x1 = 0.925	885 ± 1.2 m/s
323.14 K, 74990 kPa, x1 = 0.925	885.2 ± 1.2 m/s
323.14 K, 75000 kPa, x1 = 0.925	885.4 ± 1.2 m/s
323.14 K, 75060 kPa, x1 = 0.925	885.5 ± 1.2 m/s
323.14 K, 79970 kPa, x1 = 0.925	908.3 ± 1.2 m/s
323.14 K, 79990 kPa, x1 = 0.925	908.5 ± 1.2 m/s and 908.4 ± 1.2 m/s
323.14 K, 80000 kPa, x1 = 0.925	908.4 ± 1.2 m/s
323.14 K, 89990 kPa, x1 = 0.925	951.7 ± 1.2 m/s
323.14 K, 90000 kPa, x1 = 0.925	951.8 ± 1.2 m/s and 952 ± 1.2 m/s
323.14 K, 99950 kPa, x1 = 0.925	991.5 ± 1.3 m/s
323.14 K, 100000 kPa, x1 = 0.925	992.1 ± 1.3 m/s
323.14 K, 100010 kPa, x1 = 0.925	991.8 ± 1.3 m/s and 991.7 ± 1.3 m/s
323.14 K, 109960 kPa, x1 = 0.925	1028.8 ± 1.3 m/s
323.14 K, 109980 kPa, x1 = 0.925	1029.1 ± 1.3 m/s and 1028.9 ± 1.3 m/s
323.14 K, 109990 kPa, x1 = 0.925	1029 ± 1.3 m/s
323.14 K, 119970 kPa, x1 = 0.925	1063.9 ± 1.4 m/s and 1063.8 ± 1.4 m/s
323.14 K, 119990 kPa, x1 = 0.925	1063.9 ± 1.4 m/s
323.14 K, 129960 kPa, x1 = 0.925	1096.8 ± 1.4 m/s
323.14 K, 129980 kPa, x1 = 0.925	1096.8 ± 1.4 m/s
323.14 K, 129990 kPa, x1 = 0.925	1096.8 ± 1.4 m/s
323.14 K, 130020 kPa, x1 = 0.925	1096.9 ± 1.4 m/s
323.14 K, 139960 kPa, x1 = 0.925	1128 ± 1.4 m/s
323.14 K, 139990 kPa, x1 = 0.925	1128 ± 1.4 m/s and 1128.1 ± 1.4 m/s
323.14 K, 140000 kPa, x1 = 0.925	1128.1 ± 1.4 m/s
323.14 K, 149960 kPa, x1 = 0.925	1157.6 ± 1.5 m/s
323.14 K, 149980 kPa, x1 = 0.925	1157.7 ± 1.5 m/s
323.14 K, 149990 kPa, x1 = 0.925	1157.7 ± 1.5 m/s
323.14 K, 150010 kPa, x1 = 0.925	1157.8 ± 1.5 m/s
323.14 K, 159990 kPa, x1 = 0.925	1186.2 ± 1.5 m/s
323.14 K, 160000 kPa, x1 = 0.925	1187 ± 1.5 m/s
323.14 K, 160010 kPa, x1 = 0.925	1186 ± 1.5 m/s
323.14 K, 160050 kPa, x1 = 0.925	1186.2 ± 1.5 m/s
323.14 K, 169940 kPa, x1 = 0.925	1213.1 ± 1.5 m/s
323.14 K, 169980 kPa, x1 = 0.925	1213.1 ± 1.5 m/s and 1213.3 ± 1.5 m/s
323.14 K, 170010 kPa, x1 = 0.925	1213.2 ± 1.5 m/s
323.14 K, 179960 kPa, x1 = 0.925	1239.4 ± 1.6 m/s
323.14 K, 180000 kPa, x1 = 0.925	1239.1 ± 1.6 m/s and 1239.5 ± 1.6 m/s
323.14 K, 180100 kPa, x1 = 0.925	1239.2 ± 1.6 m/s
323.14 K, 189980 kPa, x1 = 0.925	1263.9 ± 1.6 m/s
323.14 K, 190000 kPa, x1 = 0.925	1264.3 ± 1.6 m/s
323.14 K, 190010 kPa, x1 = 0.925	1264.5 ± 1.6 m/s
323.14 K, 190050 kPa, x1 = 0.925	1264.6 ± 1.6 m/s
323.15 K, 24960 kPa, x1 = 0.8502	549.5 ± 0.8 m/s
323.15 K, 25000 kPa, x1 = 0.7534	585.5 ± 0.9 m/s
323.15 K, 29950 kPa, x1 = 0.7534	635.7 ± 0.9 m/s
323.15 K, 30020 kPa, x1 = 0.8502	602.8 ± 0.9 m/s
323.15 K, 35040 kPa, x1 = 0.7534	680.4 ± 1 m/s
323.15 K, 35100 kPa, x1 = 0.8502	648.9 ± 0.9 m/s
323.15 K, 40000 kPa, x1 = 0.7534	719.1 ± 1 m/s
323.15 K, 40050 kPa, x1 = 0.8502	688.4 ± 1 m/s
323.15 K, 45010 kPa, x1 = 0.8502	724.5 ± 1 m/s
323.15 K, 45070 kPa, x1 = 0.7534	755 ± 1 m/s
323.15 K, 49920 kPa, x1 = 0.8502	757.3 ± 1 m/s
323.15 K, 50420 kPa, x1 = 0.7534	789.8 ± 1.1 m/s
323.15 K, 55040 kPa, x1 = 0.8502	788.7 ± 1.1 m/s
323.15 K, 55120 kPa, x1 = 0.7534	818.2 ± 1.1 m/s
323.15 K, 59980 kPa, x1 = 0.8502	817.2 ± 1.1 m/s
323.15 K, 60110 kPa, x1 = 0.7534	846.6 ± 1.1 m/s
323.15 K, 64840 kPa, x1 = 0.8502	843.5 ± 1.1 m/s
323.15 K, 65810 kPa, x1 = 0.7534	876.8 ± 1.2 m/s
323.15 K, 69880 kPa, x1 = 0.8502	869.3 ± 1.1 m/s
323.15 K, 70220 kPa, x1 = 0.7534	899.1 ± 1.2 m/s
323.15 K, 75110 kPa, x1 = 0.8502	894.6 ± 1.2 m/s
323.15 K, 75220 kPa, x1 = 0.7534	923.1 ± 1.2 m/s
323.15 K, 80180 kPa, x1 = 0.8502	918 ± 1.2 m/s
323.15 K, 89680 kPa, x1 = 0.8502	959.3 ± 1.2 m/s
323.15 K, 90000 kPa, x1 = 0.7534	988.1 ± 1.3 m/s
323.15 K, 99900 kPa, x1 = 0.8502	1000.3 ± 1.3 m/s
323.15 K, 100230 kPa, x1 = 0.7534	1029 ± 1.3 m/s
323.15 K, 109760 kPa, x1 = 0.8502	1037.3 ± 1.3 m/s
323.15 K, 109960 kPa, x1 = 0.7534	1065.3 ± 1.4 m/s
323.15 K, 119510 kPa, x1 = 0.8502	1071.6 ± 1.4 m/s
323.15 K, 120580 kPa, x1 = 0.7534	1102.5 ± 1.4 m/s
323.15 K, 139890 kPa, x1 = 0.8502	1137.2 ± 1.5 m/s
323.15 K, 140520 kPa, x1 = 0.7534	1166.6 ± 1.5 m/s
323.15 K, 160410 kPa, x1 = 0.7534	1224.7 ± 1.6 m/s
323.15 K, 180460 kPa, x1 = 0.7534	1278.6 ± 1.6 m/s
323.16 K, 69980 kPa, x1 = 0.9803	855.3 ± 1.1 m/s
323.16 K, 74960 kPa, x1 = 0.9803	879.8 ± 1.2 m/s
323.16 K, 79950 kPa, x1 = 0.9803	903.2 ± 1.2 m/s
323.16 K, 89640 kPa, x1 = 0.9803	945.6 ± 1.2 m/s
323.16 K, 99690 kPa, x1 = 0.9803	986.1 ± 1.3 m/s
323.16 K, 110360 kPa, x1 = 0.9803	1025.6 ± 1.3 m/s
323.16 K, 120030 kPa, x1 = 0.9803	1059.8 ± 1.4 m/s
323.16 K, 129970 kPa, x1 = 0.9803	1092.5 ± 1.4 m/s
323.16 K, 140230 kPa, x1 = 0.9803	1124.5 ± 1.4 m/s
323.16 K, 150140 kPa, x1 = 0.9803	1153.8 ± 1.5 m/s
